In publication PMC7613998, “Development of selective inhibitors of phosphatidylinositol 3-kinase C2α” (Nature Chemical Biology, 2022):

Key:
Test in all cases: biochemical
Design in all cases: SelectScreen Adapta purified lipid kinase panel, 1 uM compound, 10 uM ATP, per cent inhibition
[1] = biological target: PIK3C2B (PI3K-C2 beta) (Homo sapiens, UniProt O00750); conditions: ATP=10; Technology=Adapta; 10 uM ATP
Experimental: (§1) As PI3KC2α is related to other PI3Ks and to PI3K-like protein kinases such as mTOR, the selectivity of PITCOINs was determined in a panel of biochemical assays. […] Finally, the high specificity of PITCOINs for PI3KC2α was verified by Kinobead profiling experiments. In this approach, the ability of PITCOINs to compete the affinity capture of cellular kinases on immobilized nonselective kinase inhibitors (Kinobeads) is analyzed by mass spectrometry (MS)[31]. […] Four nonkinase weak off-targets were globally found for the three inhibitors with only FECH[32] common to the three PITCOINs (Supplementary Dataset).  Extended Data Fig. 2 Lipid kinase inhibitor profile of PITCOIN1-3. (a–c) Selectivity profiling of PITCOIN1-3 (1 µM) with purified lipid kinases in the presence of 10 µM ATP. […] Data are presented as mean ± SD from two independent experiments. (d, e) IC50 measurements of PITCOIN1-3 against purified recombinant class I PI3K p110α/p85α (d) or purified class III PI3K VPS34 complex II (e). 10 µM ATP and 20 µM PIP3 (for p110α/p85α) or 200 µM PI (for VPS34 complex II) were used as substrates. […] Data are presented as mean ± SD from two independent experiments. Source data

[2] = biological target: PI4KA (PI4K alpha) (Homo sapiens, UniProt P42356); conditions: ATP=10; Technology=Adapta; 10 uM ATP
Experimental: as §1

[3] = biological target: PIK3C2A (PI3K-C2 alpha) (Homo sapiens, UniProt O00443); conditions: ATP=10; Technology=Adapta; 10 uM ATP; 1 µM; inhibitor
Experimental: as §1

[4] = biological target: T1, PIP4K2A (Homo sapiens, UniProt P48426); conditions: ATP=10; Technology=Adapta; 10 uM ATP
T1 sequence (P48426 1-406): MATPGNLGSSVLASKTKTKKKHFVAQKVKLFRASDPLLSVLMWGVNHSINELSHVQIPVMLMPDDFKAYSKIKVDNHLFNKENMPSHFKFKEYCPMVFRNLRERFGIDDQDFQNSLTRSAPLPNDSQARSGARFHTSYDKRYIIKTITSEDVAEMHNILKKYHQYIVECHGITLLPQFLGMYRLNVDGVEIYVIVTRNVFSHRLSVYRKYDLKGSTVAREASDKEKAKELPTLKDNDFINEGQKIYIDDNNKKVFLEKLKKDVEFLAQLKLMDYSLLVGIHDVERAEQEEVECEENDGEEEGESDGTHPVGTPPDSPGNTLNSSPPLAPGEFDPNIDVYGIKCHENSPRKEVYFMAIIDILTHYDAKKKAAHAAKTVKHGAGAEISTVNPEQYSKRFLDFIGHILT
Experimental: as §1

[5] = biological target: PIP5K1C (Homo sapiens, UniProt O60331); conditions: ATP=10; Technology=Adapta; 10 uM ATP
Experimental: as §1

[6] = biological target: PIP5K1A (Homo sapiens, UniProt Q99755); conditions: ATP=10; Technology=Adapta; 10 uM ATP
Experimental: as §1

[7] = biological target: PI4K2B (PI4K2 beta) (Homo sapiens, UniProt Q8TCG2); conditions: ATP=10; Technology=Adapta; 10 uM ATP
Experimental: as §1

[8] = biological target: PIK3CB/PIK3R2 (p110 beta/p85 beta) (Homo sapiens, UniProt P42338); conditions: ATP=10; Technology=Adapta; 10 uM ATP
Experimental: as §1

[9] = biological target: T2, SPHK2 (Homo sapiens, UniProt Q9NRA0); conditions: ATP=10; Technology=Adapta; 10 uM ATP
T2 sequence (Q9NRA0 1-654): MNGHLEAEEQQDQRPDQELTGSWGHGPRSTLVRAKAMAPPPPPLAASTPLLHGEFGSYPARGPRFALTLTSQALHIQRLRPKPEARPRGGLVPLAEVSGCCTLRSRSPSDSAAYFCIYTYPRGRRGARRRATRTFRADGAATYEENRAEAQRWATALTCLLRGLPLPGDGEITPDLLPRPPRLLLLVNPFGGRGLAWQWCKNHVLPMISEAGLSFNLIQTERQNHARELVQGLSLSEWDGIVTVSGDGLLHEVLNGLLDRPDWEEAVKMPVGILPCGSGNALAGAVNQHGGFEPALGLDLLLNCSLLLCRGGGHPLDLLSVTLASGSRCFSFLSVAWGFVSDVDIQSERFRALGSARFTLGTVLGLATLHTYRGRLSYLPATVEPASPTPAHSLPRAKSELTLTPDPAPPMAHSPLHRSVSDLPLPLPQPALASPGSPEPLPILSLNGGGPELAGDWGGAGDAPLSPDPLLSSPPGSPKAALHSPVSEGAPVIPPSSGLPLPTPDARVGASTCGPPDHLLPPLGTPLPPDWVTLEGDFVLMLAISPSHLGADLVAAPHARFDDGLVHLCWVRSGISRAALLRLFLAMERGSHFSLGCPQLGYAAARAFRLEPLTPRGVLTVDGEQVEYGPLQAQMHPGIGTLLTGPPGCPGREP
Experimental: as §1

[10] = biological target: SPHK1 (Homo sapiens, UniProt Q9NYA1); conditions: ATP=10; Technology=Adapta; 10 uM ATP
Experimental: as §1

[11] = biological target: PIK3CA E545K/PIK3R1 (p110 alpha E545K/p85 alpha) (Homo sapiens, UniProt P42336, E545K); conditions: ATP=10; Technology=Adapta; 10 uM ATP
Experimental: as §1

[12] = biological target: PIK3CA/PIK3R1 (p110 alpha/p85 alpha) (Homo sapiens, UniProt P42336); conditions: ATP=10; Technology=Adapta; 10 uM ATP
Experimental: as §1

Chain of PIP5K1C (O60331 whole entry): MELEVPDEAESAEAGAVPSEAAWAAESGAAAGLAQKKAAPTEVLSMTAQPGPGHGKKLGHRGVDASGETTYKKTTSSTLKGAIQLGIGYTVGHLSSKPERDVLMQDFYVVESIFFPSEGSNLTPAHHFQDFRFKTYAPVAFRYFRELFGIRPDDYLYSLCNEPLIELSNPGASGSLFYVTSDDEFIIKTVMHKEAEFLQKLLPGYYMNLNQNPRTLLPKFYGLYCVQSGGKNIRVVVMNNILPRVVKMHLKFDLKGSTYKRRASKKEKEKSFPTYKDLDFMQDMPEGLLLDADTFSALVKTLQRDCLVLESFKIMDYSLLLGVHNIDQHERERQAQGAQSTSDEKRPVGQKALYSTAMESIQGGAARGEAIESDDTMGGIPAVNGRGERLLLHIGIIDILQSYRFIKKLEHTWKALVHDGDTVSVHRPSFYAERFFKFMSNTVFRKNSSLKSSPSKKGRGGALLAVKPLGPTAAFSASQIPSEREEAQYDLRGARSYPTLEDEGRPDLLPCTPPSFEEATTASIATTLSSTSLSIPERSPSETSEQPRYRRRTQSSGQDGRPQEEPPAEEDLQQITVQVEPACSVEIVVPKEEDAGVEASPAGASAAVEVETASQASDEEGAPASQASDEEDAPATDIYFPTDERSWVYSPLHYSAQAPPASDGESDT
Chain of PIK3CA E545K/PIK3R1 (p110 alpha E545K/p85 alpha) (P42336 whole entry E545K): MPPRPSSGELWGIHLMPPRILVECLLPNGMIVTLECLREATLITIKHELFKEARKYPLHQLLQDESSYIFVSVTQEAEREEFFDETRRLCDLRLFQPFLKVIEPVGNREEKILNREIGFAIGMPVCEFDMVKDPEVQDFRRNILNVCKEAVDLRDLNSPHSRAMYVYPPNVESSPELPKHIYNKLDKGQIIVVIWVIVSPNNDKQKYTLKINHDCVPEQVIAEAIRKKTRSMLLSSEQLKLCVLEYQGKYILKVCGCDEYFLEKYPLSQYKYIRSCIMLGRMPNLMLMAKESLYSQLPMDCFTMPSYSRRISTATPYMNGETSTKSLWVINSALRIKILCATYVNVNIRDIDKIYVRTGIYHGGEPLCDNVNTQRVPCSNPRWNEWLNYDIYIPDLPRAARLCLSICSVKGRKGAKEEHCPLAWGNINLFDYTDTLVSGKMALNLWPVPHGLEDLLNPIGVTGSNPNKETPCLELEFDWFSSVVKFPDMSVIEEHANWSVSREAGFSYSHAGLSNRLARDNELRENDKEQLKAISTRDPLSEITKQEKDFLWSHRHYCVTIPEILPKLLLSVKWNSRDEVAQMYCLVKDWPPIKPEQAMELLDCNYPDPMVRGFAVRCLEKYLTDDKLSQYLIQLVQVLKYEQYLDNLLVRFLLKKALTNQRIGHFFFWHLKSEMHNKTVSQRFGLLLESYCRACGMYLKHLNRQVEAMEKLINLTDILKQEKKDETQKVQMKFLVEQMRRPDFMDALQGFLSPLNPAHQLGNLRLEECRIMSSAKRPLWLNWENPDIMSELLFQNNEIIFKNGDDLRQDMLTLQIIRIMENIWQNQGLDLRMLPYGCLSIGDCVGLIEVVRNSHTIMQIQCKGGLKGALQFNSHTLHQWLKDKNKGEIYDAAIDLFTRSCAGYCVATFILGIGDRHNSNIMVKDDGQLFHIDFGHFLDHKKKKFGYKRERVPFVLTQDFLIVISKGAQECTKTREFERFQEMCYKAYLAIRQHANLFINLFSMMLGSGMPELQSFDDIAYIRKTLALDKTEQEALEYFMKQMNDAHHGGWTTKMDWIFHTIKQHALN
Chain of PIK3CA E545K/PIK3R1 (p110 alpha E545K/p85 alpha) (P27986 whole entry partner): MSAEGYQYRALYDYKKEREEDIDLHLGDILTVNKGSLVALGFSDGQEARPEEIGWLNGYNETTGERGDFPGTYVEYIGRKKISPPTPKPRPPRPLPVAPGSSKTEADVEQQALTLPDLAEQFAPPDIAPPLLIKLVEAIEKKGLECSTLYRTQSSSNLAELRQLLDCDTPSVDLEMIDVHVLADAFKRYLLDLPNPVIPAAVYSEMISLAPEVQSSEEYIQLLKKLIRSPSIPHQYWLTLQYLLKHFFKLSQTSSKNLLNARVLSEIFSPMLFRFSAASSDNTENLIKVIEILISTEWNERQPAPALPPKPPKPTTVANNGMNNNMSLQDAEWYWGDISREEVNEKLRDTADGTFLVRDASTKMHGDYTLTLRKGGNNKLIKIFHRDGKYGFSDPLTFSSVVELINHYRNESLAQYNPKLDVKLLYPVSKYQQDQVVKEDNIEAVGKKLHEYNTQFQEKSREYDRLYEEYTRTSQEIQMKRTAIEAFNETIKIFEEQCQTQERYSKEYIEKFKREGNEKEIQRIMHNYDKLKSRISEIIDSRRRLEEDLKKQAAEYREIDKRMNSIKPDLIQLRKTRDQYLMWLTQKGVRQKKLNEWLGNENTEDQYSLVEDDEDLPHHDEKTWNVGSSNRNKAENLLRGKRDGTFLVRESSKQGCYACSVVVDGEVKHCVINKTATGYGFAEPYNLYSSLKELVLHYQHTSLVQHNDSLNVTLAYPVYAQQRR
Chain of PIP5K1A (Q99755 whole entry): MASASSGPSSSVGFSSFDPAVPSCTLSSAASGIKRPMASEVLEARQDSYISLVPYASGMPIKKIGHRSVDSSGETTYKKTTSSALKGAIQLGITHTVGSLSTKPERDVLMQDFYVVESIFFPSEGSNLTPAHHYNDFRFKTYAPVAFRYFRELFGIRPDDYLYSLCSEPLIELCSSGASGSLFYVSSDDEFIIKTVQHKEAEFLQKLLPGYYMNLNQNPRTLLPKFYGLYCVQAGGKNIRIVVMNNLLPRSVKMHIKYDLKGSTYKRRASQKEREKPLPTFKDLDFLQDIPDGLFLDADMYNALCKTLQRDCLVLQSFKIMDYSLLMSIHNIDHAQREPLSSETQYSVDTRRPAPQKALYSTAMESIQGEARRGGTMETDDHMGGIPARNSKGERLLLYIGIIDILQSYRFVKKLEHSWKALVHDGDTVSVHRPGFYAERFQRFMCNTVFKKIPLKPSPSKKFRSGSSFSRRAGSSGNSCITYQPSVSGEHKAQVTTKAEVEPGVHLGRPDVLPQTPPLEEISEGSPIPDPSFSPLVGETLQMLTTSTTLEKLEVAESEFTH
Chain of PIK3C2A (PI3K-C2 alpha) (O00443 whole entry): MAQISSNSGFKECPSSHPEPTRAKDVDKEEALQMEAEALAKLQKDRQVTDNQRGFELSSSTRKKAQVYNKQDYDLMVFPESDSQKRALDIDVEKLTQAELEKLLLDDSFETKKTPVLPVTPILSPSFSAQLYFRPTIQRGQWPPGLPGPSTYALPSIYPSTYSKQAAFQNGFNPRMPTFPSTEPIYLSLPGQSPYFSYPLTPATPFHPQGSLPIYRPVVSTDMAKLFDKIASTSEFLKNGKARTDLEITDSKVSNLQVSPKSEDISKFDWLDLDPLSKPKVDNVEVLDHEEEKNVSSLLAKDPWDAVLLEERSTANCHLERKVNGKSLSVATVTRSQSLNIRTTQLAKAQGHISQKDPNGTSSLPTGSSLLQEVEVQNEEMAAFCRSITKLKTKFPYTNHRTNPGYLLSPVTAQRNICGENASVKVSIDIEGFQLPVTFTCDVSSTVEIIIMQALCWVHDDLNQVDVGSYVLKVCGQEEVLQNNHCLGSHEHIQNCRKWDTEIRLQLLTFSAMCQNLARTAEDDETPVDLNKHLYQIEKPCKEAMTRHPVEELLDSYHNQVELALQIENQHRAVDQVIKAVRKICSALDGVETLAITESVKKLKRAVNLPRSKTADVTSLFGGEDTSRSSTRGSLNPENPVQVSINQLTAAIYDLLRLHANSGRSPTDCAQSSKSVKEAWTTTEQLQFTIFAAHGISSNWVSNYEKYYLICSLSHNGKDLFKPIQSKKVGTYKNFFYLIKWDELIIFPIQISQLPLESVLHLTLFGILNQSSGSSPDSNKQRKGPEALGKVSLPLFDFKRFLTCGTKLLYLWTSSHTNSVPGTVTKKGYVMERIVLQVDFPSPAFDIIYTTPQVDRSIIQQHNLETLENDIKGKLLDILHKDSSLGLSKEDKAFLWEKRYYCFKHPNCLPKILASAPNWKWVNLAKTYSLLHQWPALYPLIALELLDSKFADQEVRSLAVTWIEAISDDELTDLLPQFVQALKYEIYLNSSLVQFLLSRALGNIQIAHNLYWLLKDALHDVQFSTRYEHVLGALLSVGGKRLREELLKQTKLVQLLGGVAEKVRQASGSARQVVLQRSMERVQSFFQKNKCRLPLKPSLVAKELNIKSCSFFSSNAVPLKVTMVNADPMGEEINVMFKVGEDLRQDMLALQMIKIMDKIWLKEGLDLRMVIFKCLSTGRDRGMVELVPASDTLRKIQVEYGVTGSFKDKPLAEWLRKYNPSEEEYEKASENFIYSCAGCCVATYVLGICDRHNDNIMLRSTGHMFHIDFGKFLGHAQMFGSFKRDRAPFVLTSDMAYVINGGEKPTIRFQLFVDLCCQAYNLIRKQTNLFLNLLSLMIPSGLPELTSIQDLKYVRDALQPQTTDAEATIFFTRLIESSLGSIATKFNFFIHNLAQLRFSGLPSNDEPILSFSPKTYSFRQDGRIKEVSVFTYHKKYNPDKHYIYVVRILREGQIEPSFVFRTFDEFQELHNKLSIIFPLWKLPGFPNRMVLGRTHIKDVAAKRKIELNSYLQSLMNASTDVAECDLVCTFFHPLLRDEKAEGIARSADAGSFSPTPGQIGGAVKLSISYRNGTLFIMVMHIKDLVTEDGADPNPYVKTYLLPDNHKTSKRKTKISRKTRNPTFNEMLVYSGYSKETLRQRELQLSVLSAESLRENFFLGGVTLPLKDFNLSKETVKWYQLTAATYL
Chain of SPHK1 (Q9NYA1 whole entry): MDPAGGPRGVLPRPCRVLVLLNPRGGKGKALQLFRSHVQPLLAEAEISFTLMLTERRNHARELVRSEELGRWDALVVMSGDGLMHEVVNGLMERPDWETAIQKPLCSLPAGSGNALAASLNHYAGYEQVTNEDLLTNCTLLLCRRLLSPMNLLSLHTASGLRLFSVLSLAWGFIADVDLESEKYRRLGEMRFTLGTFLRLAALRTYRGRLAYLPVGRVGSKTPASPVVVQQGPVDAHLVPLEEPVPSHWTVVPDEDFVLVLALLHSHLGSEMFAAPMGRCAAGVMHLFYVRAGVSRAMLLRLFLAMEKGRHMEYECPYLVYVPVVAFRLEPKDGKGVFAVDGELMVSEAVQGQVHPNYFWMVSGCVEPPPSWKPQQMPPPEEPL

| inhibition at 1 µM [1] | inhibition at 1 µM [2] | % Inhibition Avg [3] | inhibition at 1 µM [4] | inhibition at 1 µM [5] | inhibition at 1 µM [6] | inhibition at 1 µM [7] | inhibition at 1 µM [8] | inhibition at 1 µM [9] | inhibition at 1 µM [10] | inhibition at 1 µM [11] | inhibition at 1 µM [12] | SMILES |
| --- | --- | --- | --- | --- | --- | --- | --- | --- | --- | --- | --- | --- |
| 12% | 1% | 88% | 13% | 15% | 4% | 4% | 3% | 9% | -1% | 2% | 5% | O=C(CSc1nc2nccnc2c(=O)n1CCc1ccccc1)Nc1nccs1 [compound 1, PITCOIN1] |
| 9% | 5% | 83% | -15% | -4% | -7% | 8% | 7% | -5% | -1% | 4% | 17% | CS(=O)(=O)Nc1cccc(-c2csc(NC(=O)CSc3nc4nccnc4c(=O)n3CCc3ccccc3)n2)c1 [compound 3, PITCOIN3] |
| 40% | -9% | 87% | 2% | -8% | -6% | -5% | -2% | -1% | -6% | 0% | -1% | O=C(CSc1nc2nccnc2c(=O)n1CCc1ccccc1)Nc1nc(-c2cccc(O)c2)cs1 [compound 2, PITCOIN2] |
